From PubChem BioAssay (NCI)
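Protocol summary: plate cells (96-well), add compound at 5 concentrations, incubate 48 h, interpolate endpoints linearly. At the GI50, growth is halved. Definition used: TGI = concentration required for complete inhibition of growth.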

Assays:
Test in all cases: DTP human tumour cell line panel, 48 h
[1] = tested on: 786-0 renal
[2] = tested on: A498 renal
[3] = tested on: A549 NSCLC
[4] = tested on: ACHN renal
[5] = tested on: BT-549 breast
[6] = tested on: CAKI-1 renal
[7] = tested on: CCRF-CEM leukemia
[8] = tested on: COLO 205 colon
[9] = tested on: DU-145 prostate
[10] = tested on: EKVX NSCLC
[11] = tested on: HCC-2998 colon
[12] = tested on: HCT-116 colon
[13] = tested on: HCT-15 colon
[14] = tested on: HL-60(TB) leukemia
[15] = tested on: HOP-62 NSCLC
[16] = tested on: HOP-92 NSCLC
[17] = tested on: HS 578T breast
[18] = tested on: HT29 colon
[19] = tested on: IGROV1 ovarian
[20] = tested on: K-562 leukemia
[21] = tested on: KM12 colon
[22] = tested on: LOX IMVI melanoma
[23] = tested on: M14 melanoma
[24] = tested on: MALME-3M melanoma
[25] = tested on: MCF7 breast
[26] = tested on: MDA-MB-231 breast
[27] = tested on: MOLT-4 leukemia
[28] = tested on: NCI-H226 lung
[29] = tested on: NCI-H23 lung
[30] = tested on: NCI-H460 lung
[31] = tested on: NCI/ADR-RES ovarian
[32] = tested on: OVCAR-3 ovarian
[33] = tested on: OVCAR-4 ovarian
[34] = tested on: OVCAR-5 ovarian
[35] = tested on: OVCAR-8 ovarian
[36] = tested on: PC-3 prostate
[37] = tested on: RPMI-8226 leukemia
[38] = tested on: RXF 393 renal
[39] = tested on: SF-268 CNS
[40] = tested on: SF-295 CNS
[41] = tested on: SF-539 CNS
[42] = tested on: SK-MEL-2 melanoma
[43] = tested on: SK-MEL-28 melanoma
[44] = tested on: SK-MEL-5 melanoma
[45] = tested on: SK-OV-3 ovarian
[46] = tested on: SN12C renal
[47] = tested on: SNB-19 CNS
[48] = tested on: SNB-75 CNS
[49] = tested on: SR leukemia
[50] = tested on: SW-620 colon
[51] = tested on: T-47D breast
[52] = tested on: TK-10 renal
[53] = tested on: U251 CNS
[54] = tested on: UACC-257 melanoma
[55] = tested on: UACC-62 melanoma
[56] = tested on: UO-31 renal

O=C(NCCCCNC(=O)OCc1ccc2c(Cl)cc(Cl)c(O)c2n1)OCc1ccc2c(Cl)cc(Cl)c(O)c2n1
GI50 [1]: 4.95 µM
TGI [1]: > 100 µM
GI50 [2]: 0.295 µM
TGI [2]: 5.23 µM
GI50 [3]: 6.33 µM
TGI [3]: > 100 µM
GI50 [4]: 0.537 µM
TGI [4]: > 100 µM
GI50 [5]: 2.27 µM
TGI [5]: > 100 µM
GI50 [6]: 0.782 µM
TGI [6]: > 100 µM
GI50 [7]: 0.398 µM
TGI [7]: > 100 µM
GI50 [8]: 24.4 µM
TGI [8]: > 100 µM
GI50 [9]: 0.855 µM
TGI [9]: > 100 µM
GI50 [10]: 10.6 µM
TGI [10]: > 100 µM
GI50 [11]: 3.62 µM
TGI [11]: > 100 µM
GI50 [12]: 0.359 µM
TGI [12]: > 100 µM
GI50 [13]: 0.89 µM
TGI [13]: > 100 µM
GI50 [14]: 0.499 µM
TGI [14]: 2.2 µM
GI50 [15]: 2.61 µM
TGI [15]: > 100 µM
GI50 [16]: 3.86 µM
TGI [16]: > 100 µM
GI50 [17]: 0.979 µM
TGI [17]: > 100 µM
GI50 [18]: 43.7 µM
TGI [18]: > 100 µM
GI50 [19]: 1.22 µM
TGI [19]: > 100 µM
GI50 [20]: 0.586 µM
TGI [20]: > 100 µM
GI50 [21]: 0.543 µM
TGI [21]: > 100 µM
GI50 [22]: 0.72 µM
TGI [22]: > 100 µM
GI50 [23]: 0.502 µM
TGI [23]: > 100 µM
GI50 [24]: 2.87 µM
TGI [24]: > 100 µM
GI50 [25]: 0.406 µM
TGI [25]: > 100 µM
GI50 [26]: 0.685 µM
TGI [26]: > 100 µM
GI50 [27]: 0.591 µM
TGI [27]: > 100 µM
GI50 [28]: 24.3 µM
TGI [28]: > 100 µM
GI50 [29]: 1.83 µM
TGI [29]: > 100 µM
GI50 [30]: 0.521 µM
TGI [30]: > 100 µM
GI50 [31]: 0.336 µM
TGI [31]: > 100 µM
GI50 [32]: 0.442 µM
TGI [32]: > 100 µM
GI50 [33]: 4.47 µM
TGI [33]: > 100 µM
GI50 [34]: 47.1 µM
TGI [34]: > 100 µM
GI50 [35]: 0.458 µM
TGI [35]: > 100 µM
GI50 [36]: 1.64 µM
TGI [36]: > 100 µM
GI50 [37]: 0.336 µM
TGI [37]: > 100 µM
GI50 [38]: 3.38 µM
TGI [38]: > 100 µM
GI50 [39]: 1.25 µM
TGI [39]: > 100 µM
GI50 [40]: 4.17 µM
TGI [40]: > 100 µM
GI50 [41]: 0.288 µM
TGI [41]: 1.4 µM
GI50 [42]: 1.94 µM
TGI [42]: > 100 µM
GI50 [43]: 0.809 µM
TGI [43]: > 100 µM
GI50 [44]: 1.2 µM
TGI [44]: 3.95 µM
GI50 [45]: 5.12 µM
TGI [45]: > 100 µM
GI50 [46]: 0.762 µM
TGI [46]: > 100 µM
GI50 [47]: 4.7 µM
TGI [47]: > 100 µM
GI50 [48]: 1.23 µM
TGI [48]: > 100 µM
GI50 [49]: 0.422 µM
TGI [49]: > 100 µM
GI50 [50]: 0.486 µM
TGI [50]: > 100 µM
GI50 [51]: 7.61 µM
TGI [51]: > 100 µM
GI50 [52]: 13.8 µM
TGI [52]: > 100 µM
GI50 [53]: 2.84 µM
TGI [53]: > 100 µM
GI50 [54]: 31.4 µM
TGI [54]: > 100 µM
GI50 [55]: 2.21 µM
TGI [55]: 86.7 µM
GI50 [56]: 1.65 µM
TGI [56]: > 100 µM
